Values joined by “and” are separate entries in the source; they are usually repeats but may differ in a detail not shown here. Equal entries are not always repeated. Inconclusive results and toxic doses are left out. Cut-off read from the data, not from the text of the source: active = T/C of 150% or more; inactive = T/C below 125%.
Test system: L1210 leukemia ip in BDF1 mice, survival T/C
Test: NCI In Vivo Anticancer Drug Screen. Data for tumor model L1210 Leukemia (intraperitoneal) in B6D2F1 (BDF1) mice
Conditions: higher = longer survival
How it was run: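 Mice bearing the transplanted tumor received compound or vehicle. Survival of the treated group was divided by that of the vehicle-treated control group to give the ratio.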

[1] = endpoint: mean survival time, dose: 100.0 mg/kg/injection, schedule: Q01DX009 (ip), vehicle: Klucel (hydroxypropylcellulose) (HPC)
[2] = endpoint: mean survival time, dose: 100.0 mg/kg/injection, schedule: Q04DX003 (ip), vehicle: Klucel (hydroxypropylcellulose) (HPC)
[3] = endpoint: mean survival time, dose: 200.0 mg/kg/injection, schedule: Q01DX009 (ip), vehicle: Klucel (hydroxypropylcellulose) (HPC)
[4] = endpoint: mean survival time, dose: 200.0 mg/kg/injection, schedule: Q04DX003 (ip), vehicle: Klucel (hydroxypropylcellulose) (HPC)
[5] = endpoint: mean survival time, dose: 400.0 mg/kg/injection, schedule: Q01DX009 (ip), vehicle: Klucel (hydroxypropylcellulose) (HPC)
[6] = endpoint: mean survival time, dose: 400.0 mg/kg/injection, schedule: Q04DX003 (ip), vehicle: Klucel (hydroxypropylcellulose) (HPC)

Measured: T/C

CC1CN=C(c2ccc(NC(=O)c3ccc(C(=O)Nc4ccc(C5=NCC(C)CN5)cc4)cc3)cc2)NC1 (stereo unspecified)
inactive: endpoint: mean survival time, dose: 0.12 mg/kg/injection, schedule: Q01DX015 (ip), vehicle: water 100 % of control | endpoint: mean survival time, dose: 0.25 mg/kg/injection, schedule: Q01DX015 (ip), vehicle: water 102 % of control | endpoint: mean survival time, dose: 0.5 mg/kg/injection, schedule: Q01DX015 (ip), vehicle: water 104 % of control | endpoint: mean survival time, dose: 1.0 mg/kg/injection, schedule: Q01DX015 (ip), vehicle: water 104 % of control | endpoint: mean survival time, dose: 2.0 mg/kg/injection, schedule: Q01DX015 (ip), vehicle: water 122 % of control | endpoint: mean survival time, dose: 4.0 mg/kg/injection, schedule: Q01DX015 (ip), vehicle: water 114 % of control

CC(C)=CBr
inactive: endpoint: mean survival time, dose: 50.0 mg/kg/injection, schedule: Q01DX009 (ip), vehicle: acetone 96 % of control | endpoint: mean survival time, dose: 100.0 mg/kg/injection, schedule: Q01DX009 (ip), vehicle: acetone 89 % of control | endpoint: mean survival time, dose: 200.0 mg/kg/injection, schedule: Q01DX009 (ip), vehicle: acetone 103 % of control

CCCCCCCCP(=O)(O)CCCCCCCC
inactive: endpoint: mean survival time, dose: 25.0 mg/kg/injection, schedule: Q04DX003 (ip), vehicle: saline with Tween-80 96 % of control | endpoint: mean survival time, dose: 50.0 mg/kg/injection, schedule: Q04DX003 (ip), vehicle: saline with Tween-80 87 % of control | endpoint: mean survival time, dose: 100.0 mg/kg/injection, schedule: Q04DX003 (ip), vehicle: saline with Tween-80 91 % of control

O=C(COc1ccccc1Cl)NCc1ccc(Cl)cc1
inactive: [1] 92 % of control | [2] 93 % of control | [3] 88 % of control | [4] 95 % of control | [5] 103 % of control | [6] 93 % of control

CCNC(=O)Nc1ncn[nH]1
inactive: endpoint: mean survival time, dose: 75.0 mg/kg/injection, schedule: Q01DX001 (ip), vehicle: carboxymethylcellulose (CMC) 102 % of control | endpoint: mean survival time, dose: 150.0 mg/kg/injection, schedule: Q01DX001 (ip), vehicle: carboxymethylcellulose (CMC) 98 % of control

OCCNC(=S)Nc1cccc(C(F)(F)F)c1
inactive: endpoint: mean survival time, dose: 100.0 mg/kg/injection, schedule: Q01DX009 (ip), vehicle: saline with Tween-80 100 % of control | endpoint: mean survival time, dose: 100.0 mg/kg/injection, schedule: Q04DX002 (ip), vehicle: saline with Tween-80 91 % of control | endpoint: mean survival time, dose: 200.0 mg/kg/injection, schedule: Q01DX009 (ip), vehicle: saline with Tween-80 97 % of control | endpoint: mean survival time, dose: 200.0 mg/kg/injection, schedule: Q04DX002 (ip), vehicle: saline with Tween-80 98 % of control | endpoint: mean survival time, dose: 400.0 mg/kg/injection, schedule: Q04DX002 (ip), vehicle: saline with Tween-80 112 % of control

C[C@]12CCC(=O)C=C1CC[C@@H]1[C@@H]2C(=O)C[C@]2(C)C3=CC(=O)O[C@H]3C[C@@H]12
inactive: endpoint: mean survival time, dose: 25.0 mg/kg/injection, schedule: Q01DX015 (sc), vehicle: steriod suspending solution 117 % of control | endpoint: mean survival time, dose: 50.0 mg/kg/injection, schedule: Q01DX015 (sc), vehicle: steriod suspending solution 102 % of control | endpoint: mean survival time, dose: 100.0 mg/kg/injection, schedule: Q01DX001 (sc), vehicle: steriod suspending solution 94 % of control | endpoint: mean survival time, dose: 100.0 mg/kg/injection, schedule: Q01DX015 (sc), vehicle: steriod suspending solution 102 % of control | endpoint: mean survival time, dose: 200.0 mg/kg/injection, schedule: Q01DX001 (sc), vehicle: steriod suspending solution 103 % of control | endpoint: mean survival time, dose: 200.0 mg/kg/injection, schedule: Q01DX015 (sc), vehicle: steriod suspending solution 91 % of control | endpoint: mean survival time, dose: 400.0 mg/kg/injection, schedule: Q01DX001 (sc), vehicle: steriod suspending solution 103 % of control | endpoint: mean survival time, dose: 400.0 mg/kg/injection, schedule: Q01DX015 (sc), vehicle: steriod suspending solution 97 % of control | endpoint: mean survival time, dose: 600.0 mg/kg/injection, schedule: Q01DX015 (sc), vehicle: steriod suspending solution 95 % of control

N#C/C(=C/c1ccccc1B(O)O)C(=O)O
inactive: [2] 89 % of control | [4] 93 % of control | [6] 95 % of control

O=C(c1ccccc1)C1C(c2ccccc2)N1C(=O)c1ccccc1 (stereo unspecified)
inactive: [1] 94 % of control | [2] 102 % of control | [3] 101 % of control | [4] 90 % of control | [5] 89 % of control | [6] 90 % of control

C[n+]1c(/C=C/c2ccc3c(c2)OCO3)ccc2ccccc21
inactive: endpoint: mean survival time, dose: 25.0 mg/kg/injection, schedule: Q01DX009 (ip), vehicle: saline with Tween-80 108 % of control | endpoint: mean survival time, dose: 25.0 mg/kg/injection, schedule: Q04DX003 (ip), vehicle: Klucel (hydroxypropylcellulose) (HPC) 106 % of control | endpoint: mean survival time, dose: 33.0 mg/kg/injection, schedule: Q01DX009 (ip), vehicle: gum acacia 114 % of control | endpoint: mean survival time, dose: 50.0 mg/kg/injection, schedule: Q01DX009 (ip), vehicle: gum acacia 98 % of control | endpoint: mean survival time, dose: 50.0 mg/kg/injection, schedule: Q04DX003 (ip), vehicle: Klucel (hydroxypropylcellulose) (HPC) 101 % of control | [2] 95 % of control and 89 % of control

O=C(CCCc1ccc(N(CCCl)CCCl)cc1)Nc1ncccn1
inactive: endpoint: mean survival time, dose: 1.0 mg/kg/injection, schedule: Q01DX015 (ip), vehicle: carboxymethylcellulose (CMC) 113 % of control | endpoint: mean survival time, dose: 3.0 mg/kg/injection, schedule: Q01DX015 (ip), vehicle: carboxymethylcellulose (CMC) 118 % of control | endpoint: mean survival time, dose: 6.0 mg/kg/injection, schedule: Q01DX015 (ip), vehicle: carboxymethylcellulose (CMC) 118 % of control | endpoint: mean survival time, dose: 6.25 mg/kg/injection, schedule: Q01DX001 (ip), vehicle: saline 110 % of control | endpoint: mean survival time, dose: 12.0 mg/kg/injection, schedule: Q01DX015 (ip), vehicle: carboxymethylcellulose (CMC) 123 % of control | endpoint: mean survival time, dose: 12.5 mg/kg/injection, schedule: Q01DX001 (ip), vehicle: saline 110 % of control | endpoint: mean survival time, dose: 25.0 mg/kg/injection, schedule: Q01DX001 (ip), vehicle: saline 121 % of control

CC(=O)S[C@@H]1CC2=CC(=O)CC[C@]2(C)[C@H]2CC[C@@]3(C)[C@@H](CC[C@@]34CCC(=O)O4)[C@H]12
inactive: endpoint: mean survival time, dose: 45.0 mg/kg/injection, schedule: Q01DX009 (sc), vehicle: steriod suspending solution 107 % of control | endpoint: mean survival time, dose: 90.0 mg/kg/injection, schedule: Q01DX009 (sc), vehicle: steriod suspending solution 102 % of control | [2] 90 % of control | endpoint: mean survival time, dose: 180.0 mg/kg/injection, schedule: Q01DX009 (sc), vehicle: steriod suspending solution 100 % of control | endpoint: median survival time, dose: 100.0 mg/kg/injection, schedule: Q01DX001 (ip), vehicle: water 97 % of control | endpoint: median survival time, dose: 100.0 mg/kg/injection, schedule: Q01DX009 (sc), vehicle: steriod suspending solution 101 % of control | endpoint: median survival time, dose: 200.0 mg/kg/injection, schedule: Q01DX001 (ip), vehicle: water 91 % of control | endpoint: median survival time, dose: 200.0 mg/kg/injection, schedule: Q01DX009 (sc), vehicle: steriod suspending solution 95 % of control | endpoint: median survival time, dose: 400.0 mg/kg/injection, schedule: Q01DX001 (ip), vehicle: water 97 % of control | endpoint: median survival time, dose: 400.0 mg/kg/injection, schedule: Q01DX009 (sc), vehicle: steriod suspending solution 96 % of control
